Measurements reported in ChEMBL document CHEMBL6121019, “Design, synthesis and biological evaluation of bisnoralcohol derivatives as novel IRF4 inhibitors for the treatment of multiple myeloma” (Eur J Med Chem, 2025).

How the values were obtained:
[1] = target: T1, Interferon regulatory factor 4 (Homo sapiens, UniProt Q15306); test: Inhibition of IRF4 (unknown origin) incubated for 1 hr by fluorescence polarization assay
T1 sequence (Q15306 whole entry): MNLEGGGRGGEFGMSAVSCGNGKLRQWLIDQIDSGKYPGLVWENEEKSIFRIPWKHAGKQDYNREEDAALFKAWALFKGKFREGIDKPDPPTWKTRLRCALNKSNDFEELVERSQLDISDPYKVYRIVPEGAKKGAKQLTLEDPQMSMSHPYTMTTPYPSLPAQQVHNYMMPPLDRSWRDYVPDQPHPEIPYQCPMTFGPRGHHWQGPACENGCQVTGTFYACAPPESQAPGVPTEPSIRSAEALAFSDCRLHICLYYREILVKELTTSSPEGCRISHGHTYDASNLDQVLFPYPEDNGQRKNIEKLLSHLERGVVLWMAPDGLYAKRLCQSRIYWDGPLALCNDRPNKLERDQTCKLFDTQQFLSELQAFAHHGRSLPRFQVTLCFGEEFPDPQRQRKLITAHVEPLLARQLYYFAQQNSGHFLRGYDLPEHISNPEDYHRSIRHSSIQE

[2] = Antiproliferative activity against human HaCaT cells assessed as inhibition of cell viability measured after 72 hrs by MTS assay; assay type: toxicity, cell-based
[3] = tested on: NCI-H929; test: Antiproliferative activity against human NCI-H929 cells assessed as inhibition of cell viability measured after 72 hrs by MTS assay; assay type: functional, cell-based; conditions: NCI-H929, 72 h
[4] = Antiproliferative activity against human MM1.R cells assessed as inhibition of cell viability measured after 72 hrs by MTS assay; assay type: functional, cell-based; conditions: MM.1R
[5] = Selectivity ratio IC50 for human RPMI-8226 cells to IC50 for human NCI-H929 cells; assay type: toxicity
[6] = Selectivity ratio IC50 for human RPMI-8226 cells to IC50 for human MM1.R cells; assay type: toxicity
[7] = Antiproliferative activity against human HAF cells assessed as inhibition of cell viability measured after 72 hrs by MTS assay; assay type: toxicity, cell-based
[8] = tested on: RPMI-8226; test: Antiproliferative activity against human RPMI-8226 cells assessed as inhibition of cell viability measured after 72 hrs by MTS assay; assay type: functional, cell-based; conditions: RPMI-8226, 72 h

SMILES	IC50 [1] [µM]	other results
C[C@H](C(=O)OC1CCCC1)[C@H]1CC[C@H]2[C@@H]3C(=O)C=C4C(C)(C)C(=O)C(C#N)=C[C@]4(C)[C@H]3CC[C@]12C	> 20	–
COc1ccccc1NC(=O)[C@@H](C)[C@H]1CC[C@H]2[C@@H]3C(=O)C=C4C(C)(C)C(=O)C(C#N)=C[C@]4(C)[C@H]3CC[C@]12C	10.4	–
C[C@H](C(=O)O)[C@H]1CC[C@H]2[C@@H]3CC=C4C(C)(C)C(=O)C(C#N)=C[C@]4(C)[C@H]3CC[C@]12C	> 20	–
C=CCNC(=O)[C@@H](C)[C@H]1CC[C@H]2[C@@H]3C(=O)C=C4C(C)(C)C(=O)C(C#N)=C[C@]4(C)[C@H]3CC[C@]12C	> 20	–
C[C@H](C(=O)OC1CCCCC1)[C@H]1CC[C@H]2[C@@H]3C(=O)C=C4C(C)(C)C(=O)C(C#N)=C[C@]4(C)[C@H]3CC[C@]12C	> 20	–
CCCNC(=O)[C@@H](C)[C@H]1CC[C@H]2[C@@H]3C(=O)C=C4C(C)(C)C(=O)C(C#N)=C[C@]4(C)[C@H]3CC[C@]12C	> 20	–
CCNC(=O)[C@@H](C)[C@H]1CC[C@H]2[C@@H]3C(=O)C=C4C(C)(C)C(=O)C(C#N)=C[C@]4(C)[C@H]3CC[C@]12C	> 20	–
CNC(=O)[C@@H](C)[C@H]1CC[C@H]2[C@@H]3C(=O)C=C4C(C)(C)C(=O)C(C#N)=C[C@]4(C)[C@H]3CC[C@]12C	16.4	–
CCOc1ccc(NC(=O)[C@@H](C)[C@H]2CC[C@H]3[C@@H]4C(=O)C=C5C(C)(C)C(=O)C(C#N)=C[C@]5(C)[C@H]4CC[C@]23C)cc1	10.8	–
CCOC(=O)[C@@H](C)[C@H]1CC[C@H]2[C@@H]3C(=O)C=C4C(C)(C)C(=O)C(C#N)=C[C@]4(C)[C@H]3CC[C@]12C	> 20	–
C[C@H](C(=O)Oc1ccccc1)[C@H]1CC[C@H]2[C@@H]3C(=O)C=C4C(C)(C)C(=O)C(C#N)=C[C@]4(C)[C@H]3CC[C@]12C	8.1	–
C#CCNC(=O)[C@@H](C)[C@H]1CC[C@H]2[C@@H]3C(=O)C=C4C(C)(C)C(=O)C(C#N)=C[C@]4(C)[C@H]3CC[C@]12C	> 20	–
COc1cc(NC(=O)[C@@H](C)[C@H]2CC[C@H]3[C@@H]4C(=O)C=C5C(C)(C)C(=O)C(C#N)=C[C@]5(C)[C@H]4CC[C@]23C)cc(OC)c1OC	6.95	–
Cc1ccc(NC(=O)[C@@H](C)[C@H]2CC[C@H]3[C@@H]4C(=O)C=C5C(C)(C)C(=O)C(C#N)=C[C@]5(C)[C@H]4CC[C@]23C)cc1	3.65	IC50 at 72 h [2]: > 100 µM; IC50 [3]: 0.22 µM; IC50 [4]: 0.27 µM; Ratio IC50 [5]: 1.2; Ratio IC50 [6]: 1; IC50 at 72 h [7]: > 100 µM; IC50 [8]: 0.26 µM
COc1ccc(NC(=O)CCC[C@@H](C)[C@H]2CC[C@H]3[C@@H]4C(=O)C=C5C(C)(C)C(=O)C(C#N)=C[C@]5(C)[C@H]4CC[C@]23C)cc1	> 20	–
C[C@H](CO)[C@H]1CC[C@H]2[C@@H]3C(=O)C=C4C(C)(C)C(=O)C(C#N)=C[C@]4(C)[C@H]3CC[C@]12C	> 20	–
COc1cccc(NC(=O)[C@@H](C)[C@H]2CC[C@H]3[C@@H]4C(=O)C=C5C(C)(C)C(=O)C(C#N)=C[C@]5(C)[C@H]4CC[C@]23C)c1	5.43	–
C[C@H](C(=O)n1cccn1)[C@H]1CC[C@H]2[C@@H]3C(=O)C=C4C(C)(C)C(=O)C(C#N)=C[C@]4(C)[C@H]3CC[C@]12C	3.79	IC50 at 72 h [2]: > 100 µM; IC50 [3]: 0.06 µM; IC50 [4]: 0.24 µM; Ratio IC50 [5]: 5.7; Ratio IC50 [6]: 1.4; IC50 at 72 h [7]: > 100 µM; IC50 [8]: 0.34 µM
C[C@H](C(=O)Nc1ccc2ncsc2c1)[C@H]1CC[C@H]2[C@@H]3C(=O)C=C4C(C)(C)C(=O)C(C#N)=C[C@]4(C)[C@H]3CC[C@]12C	12.1	–
C[C@H](C(=O)O)[C@H]1CC[C@H]2[C@@H]3C(=O)C=C4C(C)(C)C(=O)C(C#N)=C[C@]4(C)[C@H]3CC[C@]12C	13.5	IC50 at 72 h [2]: > 100 µM; IC50 [3]: 2.63 µM; IC50 [4]: 3.16 µM; Ratio IC50 [5]: 1.6; Ratio IC50 [6]: 1.2; IC50 at 72 h [7]: > 100 µM; IC50 [8]: 4.25 µM
C[C@H](C(=O)Oc1ccc(Cl)cc1)[C@H]1CC[C@H]2[C@@H]3C(=O)C=C4C(C)(C)C(=O)C(C#N)=C[C@]4(C)[C@H]3CC[C@]12C	> 20	–
COc1ccc(NC(=O)CC[C@@H](C)[C@H]2CC[C@H]3[C@@H]4C(=O)C=C5C(C)(C)C(=O)C(C#N)=C[C@]5(C)[C@H]4CC[C@]23C)cc1	17.9	–
CCc1ccc(NC(=O)[C@@H](C)[C@H]2CC[C@H]3[C@@H]4C(=O)C=C5C(C)(C)C(=O)C(C#N)=C[C@]5(C)[C@H]4CC[C@]23C)cc1	12.8	–

SMILES	IC50 [1] [µM]	other results
C[C@H](C(=O)Nc1ccccc1)[C@H]1CC[C@H]2[C@@H]3C(=O)C=C4C(C)(C)C(=O)C(C#N)=C[C@]4(C)[C@H]3CC[C@]12C	4.86	IC50 at 72 h [2]: > 100 µM; IC50 [3]: 0.7 µM; IC50 [4]: 0.11 µM; Ratio IC50 [5]: 1; Ratio IC50 [6]: 6.5; IC50 at 72 h [7]: > 100 µM; IC50 [8]: 0.72 µM
C[C@H](C(=O)Nc1ccc2cc[nH]c2c1)[C@H]1CC[C@H]2[C@@H]3C(=O)C=C4C(C)(C)C(=O)C(C#N)=C[C@]4(C)[C@H]3CC[C@]12C	11.6	–
COC(=O)[C@@H](C)[C@H]1CC[C@H]2[C@@H]3C(=O)C=C4C(C)(C)C(=O)C(C#N)=C[C@]4(C)[C@H]3CC[C@]12C	> 20	–
C[C@H](C(=O)Nc1ccc(Cl)cc1)[C@H]1CC[C@H]2[C@@H]3C(=O)C=C4C(C)(C)C(=O)C(C#N)=C[C@]4(C)[C@H]3CC[C@]12C	> 20	–
COc1ccc(NC(=O)C[C@@H](C)[C@H]2CC[C@H]3[C@@H]4C(=O)C=C5C(C)(C)C(=O)C(C#N)=C[C@]5(C)[C@H]4CC[C@]23C)cc1	15.1	–
COc1ccc(OC(=O)[C@@H](C)[C@H]2CC[C@H]3[C@@H]4C(=O)C=C5C(C)(C)C(=O)C(C#N)=C[C@]5(C)[C@H]4CC[C@]23C)cc1	9.37	–
C[C@H](C(=O)O)[C@H]1CC[C@H]2[C@@H]3C(=O)C=C4C(C)(C)C(=O)C=C[C@]4(C)[C@H]3CC[C@]12C	> 20	–
C[C@H](C(=O)Nc1nccs1)[C@H]1CC[C@H]2[C@@H]3C(=O)C=C4C(C)(C)C(=O)C(C#N)=C[C@]4(C)[C@H]3CC[C@]12C	14.2	–
C[C@H](C(=O)Nc1cncnc1)[C@H]1CC[C@H]2[C@@H]3C(=O)C=C4C(C)(C)C(=O)C(C#N)=C[C@]4(C)[C@H]3CC[C@]12C	9.65	–
C[C@H](CO)[C@H]1CC[C@H]2[C@@H]3CCC4=CC(=O)CC[C@]4(C)[C@H]3CC[C@]12C	> 20	–
C[C@H](C(=O)NC1CCCC1)[C@H]1CC[C@H]2[C@@H]3C(=O)C=C4C(C)(C)C(=O)C(C#N)=C[C@]4(C)[C@H]3CC[C@]12C	> 20	–
CCCCOc1ccc(NC(=O)[C@@H](C)[C@H]2CC[C@H]3[C@@H]4C(=O)C=C5C(C)(C)C(=O)C(C#N)=C[C@]5(C)[C@H]4CC[C@]23C)cc1	16.6	–
CCCOC(=O)[C@@H](C)[C@H]1CC[C@H]2[C@@H]3C(=O)C=C4C(C)(C)C(=O)C(C#N)=C[C@]4(C)[C@H]3CC[C@]12C	> 20	–
C[C@H](C(=O)Nc1ncco1)[C@H]1CC[C@H]2[C@@H]3C(=O)C=C4C(C)(C)C(=O)C(C#N)=C[C@]4(C)[C@H]3CC[C@]12C	7.61	–
C[C@H](C(=O)NC1CCCCC1)[C@H]1CC[C@H]2[C@@H]3C(=O)C=C4C(C)(C)C(=O)C(C#N)=C[C@]4(C)[C@H]3CC[C@]12C	16.4	–
COc1cc(NC(=O)[C@@H](C)[C@H]2CC[C@H]3[C@@H]4C(=O)C=C5C(C)(C)C(=O)C(C#N)=C[C@]5(C)[C@H]4CC[C@]23C)cc(OC)c1	7.06	–
C[C@H](C(=O)Oc1ccc(C(F)(F)F)cc1)[C@H]1CC[C@H]2[C@@H]3C(=O)C=C4C(C)(C)C(=O)C(C#N)=C[C@]4(C)[C@H]3CC[C@]12C	> 20	–
COc1ccc(NC(=O)[C@@H](C)[C@H]2CC[C@H]3[C@@H]4C(=O)C=C5C(C)(C)C(=O)C(C#N)=C[C@]5(C)[C@H]4CC[C@]23C)cc1OC	18.8	–
C[C@H](C(=O)Nc1ccc(C(F)(F)F)cc1)[C@H]1CC[C@H]2[C@@H]3C(=O)C=C4C(C)(C)C(=O)C(C#N)=C[C@]4(C)[C@H]3CC[C@]12C	> 20	–
C[C@H](C(=O)Nc1ccccc1O)[C@H]1CC[C@H]2[C@@H]3C(=O)C=C4C(C)(C)C(=O)C(C#N)=C[C@]4(C)[C@H]3CC[C@]12C	15	–
C[C@H](C(=O)Nc1cccnc1)[C@H]1CC[C@H]2[C@@H]3C(=O)C=C4C(C)(C)C(=O)C(C#N)=C[C@]4(C)[C@H]3CC[C@]12C	5.05	–
CCCCc1ccc(NC(=O)[C@@H](C)[C@H]2CC[C@H]3[C@@H]4C(=O)C=C5C(C)(C)C(=O)C(C#N)=C[C@]5(C)[C@H]4CC[C@]23C)cc1	> 20	–
C[C@H](C(=O)Nc1ccc2nccnc2c1)[C@H]1CC[C@H]2[C@@H]3C(=O)C=C4C(C)(C)C(=O)C(C#N)=C[C@]4(C)[C@H]3CC[C@]12C	5.62	–
